Measured values as given in publication PMC2865140 (Microbiology (Reading, England), 2009).

Tests used:
[1] = target: T1, AccD6 (carboxyltransferase beta subunit of ACCase 6) (Mycobacterium tuberculosis, UniProt P9WQH5); format: biochemical
T1 sequence (P9WQH5 1-473): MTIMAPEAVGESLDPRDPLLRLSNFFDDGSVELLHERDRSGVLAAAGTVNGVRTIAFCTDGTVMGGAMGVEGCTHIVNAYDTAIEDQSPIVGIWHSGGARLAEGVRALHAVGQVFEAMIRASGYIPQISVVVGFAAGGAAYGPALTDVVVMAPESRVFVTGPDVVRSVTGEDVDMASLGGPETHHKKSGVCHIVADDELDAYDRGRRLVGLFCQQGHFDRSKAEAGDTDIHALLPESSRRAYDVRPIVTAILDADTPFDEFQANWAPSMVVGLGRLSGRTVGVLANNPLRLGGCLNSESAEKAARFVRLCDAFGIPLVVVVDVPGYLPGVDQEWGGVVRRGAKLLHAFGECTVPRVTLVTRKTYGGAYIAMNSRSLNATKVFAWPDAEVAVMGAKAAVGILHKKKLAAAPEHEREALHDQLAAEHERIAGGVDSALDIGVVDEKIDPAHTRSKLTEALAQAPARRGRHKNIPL
T1 sequence (P9WPQ3 1-654 partner): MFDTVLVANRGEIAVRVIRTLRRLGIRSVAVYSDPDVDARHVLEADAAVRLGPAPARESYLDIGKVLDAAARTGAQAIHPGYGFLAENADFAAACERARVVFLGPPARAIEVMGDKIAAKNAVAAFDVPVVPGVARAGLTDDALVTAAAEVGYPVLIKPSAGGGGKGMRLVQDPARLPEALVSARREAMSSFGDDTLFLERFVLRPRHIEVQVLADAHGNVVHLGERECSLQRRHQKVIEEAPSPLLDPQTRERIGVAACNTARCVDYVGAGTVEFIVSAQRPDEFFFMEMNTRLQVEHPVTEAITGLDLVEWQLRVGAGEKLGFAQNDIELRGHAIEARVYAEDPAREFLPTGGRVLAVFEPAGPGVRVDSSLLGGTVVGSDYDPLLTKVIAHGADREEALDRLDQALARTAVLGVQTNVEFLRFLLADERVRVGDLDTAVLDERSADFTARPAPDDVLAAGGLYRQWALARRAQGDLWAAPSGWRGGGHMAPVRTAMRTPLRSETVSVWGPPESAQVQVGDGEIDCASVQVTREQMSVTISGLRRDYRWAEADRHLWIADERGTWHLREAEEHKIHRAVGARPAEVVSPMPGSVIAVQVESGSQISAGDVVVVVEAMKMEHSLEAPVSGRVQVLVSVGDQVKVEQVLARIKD

[2] = target: AccD5 (carboxyltransferase beta subunit of ACCase 5) (Mycobacterium tuberculosis, UniProt P9WQH7); format: biochemical
AccD5 (carboxyltransferase beta subunit of ACCase 5), sequence (P96890 2-600): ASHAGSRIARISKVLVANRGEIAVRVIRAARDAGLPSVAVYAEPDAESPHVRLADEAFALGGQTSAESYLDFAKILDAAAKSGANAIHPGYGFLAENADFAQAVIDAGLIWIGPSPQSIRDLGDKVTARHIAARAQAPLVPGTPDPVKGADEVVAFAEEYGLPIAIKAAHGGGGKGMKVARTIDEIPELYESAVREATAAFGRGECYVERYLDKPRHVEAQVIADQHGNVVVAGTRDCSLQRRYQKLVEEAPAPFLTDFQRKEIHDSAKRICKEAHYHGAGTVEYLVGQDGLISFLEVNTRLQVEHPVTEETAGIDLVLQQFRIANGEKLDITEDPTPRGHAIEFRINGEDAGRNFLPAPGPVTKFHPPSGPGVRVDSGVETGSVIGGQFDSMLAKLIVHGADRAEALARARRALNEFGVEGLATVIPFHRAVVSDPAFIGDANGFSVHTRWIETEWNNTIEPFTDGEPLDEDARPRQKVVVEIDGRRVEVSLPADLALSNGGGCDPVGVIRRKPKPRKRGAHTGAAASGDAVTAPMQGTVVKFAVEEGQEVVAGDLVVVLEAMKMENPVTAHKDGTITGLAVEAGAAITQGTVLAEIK
AccD5 (carboxyltransferase beta subunit of ACCase 5), sequence (P96886 whole entry, further chain): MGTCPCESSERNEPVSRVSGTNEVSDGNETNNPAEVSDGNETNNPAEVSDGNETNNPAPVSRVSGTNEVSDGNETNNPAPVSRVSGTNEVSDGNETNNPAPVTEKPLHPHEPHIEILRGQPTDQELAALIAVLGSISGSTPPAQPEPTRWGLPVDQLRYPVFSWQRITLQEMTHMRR
AccD5 (carboxyltransferase beta subunit of ACCase 5), sequence (P9WQH7 whole entry): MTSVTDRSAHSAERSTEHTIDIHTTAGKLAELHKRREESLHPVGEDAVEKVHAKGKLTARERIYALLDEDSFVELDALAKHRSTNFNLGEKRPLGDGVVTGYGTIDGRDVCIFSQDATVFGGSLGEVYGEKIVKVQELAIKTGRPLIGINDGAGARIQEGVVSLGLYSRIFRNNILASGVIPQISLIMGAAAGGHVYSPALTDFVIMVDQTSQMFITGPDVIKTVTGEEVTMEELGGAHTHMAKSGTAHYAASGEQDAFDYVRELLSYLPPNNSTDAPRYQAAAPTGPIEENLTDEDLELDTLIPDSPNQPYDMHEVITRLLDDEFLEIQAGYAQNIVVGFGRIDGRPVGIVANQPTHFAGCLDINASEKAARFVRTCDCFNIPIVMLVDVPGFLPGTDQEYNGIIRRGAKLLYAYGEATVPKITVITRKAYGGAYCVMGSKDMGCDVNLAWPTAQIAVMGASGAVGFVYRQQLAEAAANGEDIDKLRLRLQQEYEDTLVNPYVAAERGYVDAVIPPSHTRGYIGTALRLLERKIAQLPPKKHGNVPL

`Oc1c(Cl)cc(C(c2cc(Cl)c(O)c(Cl)c2)C(c2cc(Cl)c(O)c(Cl)c2)c2cc(Cl)c(O)c(Cl)c2)cc1Cl` [NCI-172033] was tested, and the IC50 [1] was roughly 8 µM and the IC50 [2] was 78 µM.
